ChEMBL document CHEMBL1201862, “PubChem BioAssay data set” (2004)
Calls of active or inactive are those of the source.

Columns and labels:
[1] = biological target: T1, Voltage-gated N-type calcium channel alpha-1B subunit/Amyloid beta A4 precursor protein-binding family A member 1 (Homo sapiens, UniProt Q00975+Q02410); assay type: protein assay
[2] = biological target: T1, Voltage-gated N-type calcium channel alpha-1B subunit/Amyloid beta A4 precursor protein-binding family A member 1; assay type: protein assay; remark: listed apart in the source
[3] = HEp-2 cell cytotoxicity, dose response, cytotoxicity control for RSV inhibitor project, HTS (AID 2410); assay type: functional; conditions: human respiratory syncytial virus
CAAX prenyl protease 2 [4] = biological target: T2, CAAX prenyl protease 2 (Saccharomyces cerevisiae S288c, UniProt Q03530); assay type: biochemical
T2 sequence (Q03530 whole entry): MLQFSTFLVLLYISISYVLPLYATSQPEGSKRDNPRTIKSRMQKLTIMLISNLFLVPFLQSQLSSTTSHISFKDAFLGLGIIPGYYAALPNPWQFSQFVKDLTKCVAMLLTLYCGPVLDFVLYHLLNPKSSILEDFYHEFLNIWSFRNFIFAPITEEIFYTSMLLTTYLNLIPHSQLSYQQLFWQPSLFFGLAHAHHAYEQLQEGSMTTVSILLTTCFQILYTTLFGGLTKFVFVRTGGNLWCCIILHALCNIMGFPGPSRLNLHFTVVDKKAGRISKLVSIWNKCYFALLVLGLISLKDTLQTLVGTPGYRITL

CAAX prenyl protease 1 = CAAX prenyl protease 1 (Saccharomyces cerevisiae S288c, UniProt P47154); experiment: Ste24 protease inhibitors, dose response, biochemical, S. cerevisiae, plate reader, cherry-pick (AID 488815)
Trypsin = Trypsin (Sus scrofa, UniProt P00761); experiment: porcine trypsin inhibitors, dose response, selectivity assay for Rce1 protease inhibitor project, biochemical, quenched peptide fluorescence, cherry-pick (AID 488789)
CAAX prenyl protease 2 [5] = biological target: T3, CAAX prenyl protease 2 (Homo sapiens, UniProt Q9Y256); experiment: human Rce1 protease inhibitors, dose response, biochemical, yeast membranes, quenched-peptide fluorescence, cherry-pick (AID 588849)
T3 sequence (Q9Y256 whole entry): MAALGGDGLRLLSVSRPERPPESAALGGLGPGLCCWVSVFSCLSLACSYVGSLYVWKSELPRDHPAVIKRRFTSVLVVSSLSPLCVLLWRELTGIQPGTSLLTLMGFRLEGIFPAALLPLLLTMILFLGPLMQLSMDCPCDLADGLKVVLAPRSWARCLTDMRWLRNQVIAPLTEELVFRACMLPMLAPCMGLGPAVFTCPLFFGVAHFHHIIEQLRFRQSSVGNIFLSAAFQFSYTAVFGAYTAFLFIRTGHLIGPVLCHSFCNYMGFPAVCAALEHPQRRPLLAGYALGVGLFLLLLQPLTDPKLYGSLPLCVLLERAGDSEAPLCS

Cytochrome P450 2D6 = Cytochrome P450 2D6 (Homo sapiens, UniProt P10635);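 also: CYP2D6 member of a cytochrome P450 panel assay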
Cytochrome P450 2C19 = Cytochrome P450 2C19 (Homo sapiens, UniProt P33261); experiment: Cytochrome panel assay with activity outcomes. Panel member name: p450-cyp2c19 Compounds with AC50 equal or less than 10 uM are considered active; assay type: functional; conditions: read-out: AC50
Beta-galactosidase = Beta-galactosidase (Escherichia coli, UniProt Q8VNN2); assay type: functional
Chain of Beta-galactosidase (Q8VNN2 whole entry): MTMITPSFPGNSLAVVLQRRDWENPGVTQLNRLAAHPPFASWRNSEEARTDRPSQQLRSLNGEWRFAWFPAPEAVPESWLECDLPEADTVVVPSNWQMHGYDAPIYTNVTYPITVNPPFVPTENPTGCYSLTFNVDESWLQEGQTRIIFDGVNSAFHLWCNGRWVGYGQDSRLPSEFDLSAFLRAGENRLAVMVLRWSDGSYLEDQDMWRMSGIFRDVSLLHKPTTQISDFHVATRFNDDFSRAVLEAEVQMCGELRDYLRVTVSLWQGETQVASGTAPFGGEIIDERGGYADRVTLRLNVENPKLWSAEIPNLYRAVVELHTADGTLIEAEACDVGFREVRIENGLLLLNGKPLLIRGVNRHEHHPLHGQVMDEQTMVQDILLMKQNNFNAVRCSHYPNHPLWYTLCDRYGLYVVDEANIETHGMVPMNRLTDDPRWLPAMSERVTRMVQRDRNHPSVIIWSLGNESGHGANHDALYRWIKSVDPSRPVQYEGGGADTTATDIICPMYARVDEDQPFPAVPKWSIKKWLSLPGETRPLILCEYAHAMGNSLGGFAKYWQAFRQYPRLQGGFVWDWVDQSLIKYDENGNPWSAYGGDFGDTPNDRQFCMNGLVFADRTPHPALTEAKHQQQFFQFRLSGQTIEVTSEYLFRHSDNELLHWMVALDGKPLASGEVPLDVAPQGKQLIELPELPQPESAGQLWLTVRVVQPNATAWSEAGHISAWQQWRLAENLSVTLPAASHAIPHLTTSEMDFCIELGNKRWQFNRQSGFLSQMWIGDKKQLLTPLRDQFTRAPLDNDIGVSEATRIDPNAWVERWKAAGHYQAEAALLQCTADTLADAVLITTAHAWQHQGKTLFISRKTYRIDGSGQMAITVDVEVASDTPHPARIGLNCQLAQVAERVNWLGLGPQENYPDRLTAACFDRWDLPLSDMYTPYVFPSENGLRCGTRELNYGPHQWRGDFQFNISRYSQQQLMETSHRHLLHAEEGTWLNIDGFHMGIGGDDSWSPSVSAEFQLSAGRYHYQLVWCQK

[6] = biological target: T4, Delta-type opioid receptor (Homo sapiens, UniProt P41143); experiment: HTS Image-Based Screen for Antagonists of the DOR Receptor. [Related pubchem assays (depositor defined):AID1777, AID1785, AID1786, AID2133]; assay type: functional
T4 sequence (P41143 whole entry): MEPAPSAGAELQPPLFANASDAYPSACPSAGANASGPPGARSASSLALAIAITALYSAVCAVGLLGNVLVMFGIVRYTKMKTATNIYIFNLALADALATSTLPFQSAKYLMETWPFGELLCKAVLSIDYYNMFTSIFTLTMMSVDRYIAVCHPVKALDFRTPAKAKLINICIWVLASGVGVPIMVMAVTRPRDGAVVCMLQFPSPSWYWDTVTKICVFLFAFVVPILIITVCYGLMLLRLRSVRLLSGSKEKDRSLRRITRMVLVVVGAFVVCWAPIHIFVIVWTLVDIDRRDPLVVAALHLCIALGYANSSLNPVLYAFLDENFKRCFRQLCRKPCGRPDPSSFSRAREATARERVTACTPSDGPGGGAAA

[7] = biological target: T4, Delta-type opioid receptor; experiment: HTS Image-Based Screen for Agonists of the DOR Receptor. [Related pubchem assays (depositor defined):AID1777, AID1786, AID2133]; assay type: functional
H9c2 = experiment: cells; assay type: functional, cell-based; conditions: Rattus norvegicus, H9c2, Myocardium;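 also: confirmatory concentration-response retest of ultra-high-throughput screening hits for modulation of myocardial damage; cell death induced by hydrogen peroxide oxidative stress; compound pretreatment for 60 min then peroxide exposure for 2 h; potency is for protecting the cells against peroxide damage rather than for killing them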
[8] = biological target: T5, Kappa-type opioid receptor (Homo sapiens, UniProt P41145); assay type: functional
T5 sequence (P41145 whole entry): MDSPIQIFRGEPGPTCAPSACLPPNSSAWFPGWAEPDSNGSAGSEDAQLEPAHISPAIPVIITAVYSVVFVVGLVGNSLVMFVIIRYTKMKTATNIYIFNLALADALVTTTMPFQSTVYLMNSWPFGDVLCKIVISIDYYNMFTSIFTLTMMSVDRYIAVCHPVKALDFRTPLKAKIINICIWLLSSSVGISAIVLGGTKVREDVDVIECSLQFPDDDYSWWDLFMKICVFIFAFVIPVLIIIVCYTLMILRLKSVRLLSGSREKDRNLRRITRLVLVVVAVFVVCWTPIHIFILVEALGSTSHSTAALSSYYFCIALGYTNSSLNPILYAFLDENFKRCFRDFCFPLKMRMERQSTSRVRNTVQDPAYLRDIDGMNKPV

Mu-type opioid receptor = Mu-type opioid receptor (Homo sapiens, UniProt P35372); experiment: HTS Image-Based Screen for Agonists of the MOR Receptor. [Related pubchem assays (depositor defined):AID1777, AID1785, AID1786, AID2133]; assay type: functional;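 also: imaging of beta-arrestin GFP recruitment into spots after receptor activation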
[9] = biological target: T5, Kappa-type opioid receptor; assay type: functional; remark: listed apart in the source
SUMO-activating enzyme = SUMO-activating enzyme (Homo sapiens, UniProt Q9UBT2); experiment: SUMOylation inhibitor hit validation, confirmation, SUMOylation inhibitor project, biochemical, AlphaScreen (AID 2018); assay type: functional
[10] = growth suppression of PTEN-null colon cells, dose response, cell-based, HCT116 PTEN knockout (AID 1047); assay type: functional;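 also: HCT116 colon tumor cells with PTEN knocked out; cells exposed to compound for 60 hours before readout; potency for loss of cell viability measured by luminescence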
[11] = Vero E6 cell cytotoxicity, dose response, cytotoxicity control for non-replicating M. tuberculosis project, secondary assay (AID 492998); assay type: functional, VeroE6; conditions: Vero C1008
[12] = THP-1 cell cytotoxicity, dose response, cytotoxicity control for non-replicating M. tuberculosis project (AID 489025); assay type: functional
[13] = Luminescence Cell-Based Dose Response HTS to Identify Inhibitors of 5'UTR Stem-Loop Driven Prion Protein mRNA Translation in H4 Neuroglioblastoma Cells. [Related pubchem assays: 1827 (Project Summary), 1813 (Primary HTS)]; assay type: functional
[14] = inhibitors of firefly luciferase expression or activity, dose response, H4 neuroglioma cells, luminescence (AID 1990); assay type: functional, cell-based
[15] = inhibitors of SNCA 5'UTR-driven reporter translation, confirmation, H4 neuroglioma cells, luminescence (AID 1988); assay type: functional, cell-based
Cytochrome P450 3A4 = Cytochrome P450 3A4 (Homo sapiens, UniProt P08684);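 also: CYP3A4 tested as one member of a cytochrome P450 panel screen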
[16] = biological target: T6, Tyrosine-protein phosphatase non-receptor type 22 (Homo sapiens, UniProt Q9Y2R2); experiment: SAR LYP1 Fluorescent Assay using OMFP substrate for In Vitro dose response studies - Set 2. [Related pubchem assays (depositor defined):AID1779, AID1784, AID2140, AID449726, AID488869]; assay type: functional
T6 sequence (Q9Y2R2 whole entry): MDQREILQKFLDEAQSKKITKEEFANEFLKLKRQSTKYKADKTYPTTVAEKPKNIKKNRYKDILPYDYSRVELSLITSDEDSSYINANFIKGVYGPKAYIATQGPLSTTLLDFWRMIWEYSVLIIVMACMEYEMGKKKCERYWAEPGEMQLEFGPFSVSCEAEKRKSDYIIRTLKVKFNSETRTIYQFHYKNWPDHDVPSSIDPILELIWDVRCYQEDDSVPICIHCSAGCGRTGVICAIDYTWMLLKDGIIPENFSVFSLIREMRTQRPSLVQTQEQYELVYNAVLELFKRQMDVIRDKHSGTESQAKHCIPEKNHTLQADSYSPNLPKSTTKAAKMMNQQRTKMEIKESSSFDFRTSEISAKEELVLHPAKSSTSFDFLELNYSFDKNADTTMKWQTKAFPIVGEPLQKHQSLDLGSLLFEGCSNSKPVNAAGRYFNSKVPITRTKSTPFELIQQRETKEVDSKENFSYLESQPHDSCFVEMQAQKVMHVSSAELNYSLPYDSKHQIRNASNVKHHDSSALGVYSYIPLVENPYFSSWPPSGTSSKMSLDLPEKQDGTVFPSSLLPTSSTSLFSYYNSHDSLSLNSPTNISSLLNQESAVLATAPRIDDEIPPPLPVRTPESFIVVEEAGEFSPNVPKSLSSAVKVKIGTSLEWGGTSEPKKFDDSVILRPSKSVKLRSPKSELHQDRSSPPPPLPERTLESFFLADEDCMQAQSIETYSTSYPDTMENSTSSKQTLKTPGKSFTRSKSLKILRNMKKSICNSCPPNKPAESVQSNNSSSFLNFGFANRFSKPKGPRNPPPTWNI

[17] = biological target: T6, Tyrosine-protein phosphatase non-receptor type 22; experiment: SAR LYP1 Fluorescent Assay using pCAP substrate for In Vitro dose response studies - Set 2. [Related pubchem assays (depositor defined):AID1779, AID1784, AID2135, AID449727]; assay type: functional
[18] = biological target: T7, Tyrosine-protein phosphatase non-receptor type 7 (Homo sapiens, UniProt P35236); experiment: HePTP (PTPN7) phosphatase inhibitor potency, SAR follow-up, biochemical, set 2 (AID 449736); assay type: functional
T7 sequence (P35236 whole entry): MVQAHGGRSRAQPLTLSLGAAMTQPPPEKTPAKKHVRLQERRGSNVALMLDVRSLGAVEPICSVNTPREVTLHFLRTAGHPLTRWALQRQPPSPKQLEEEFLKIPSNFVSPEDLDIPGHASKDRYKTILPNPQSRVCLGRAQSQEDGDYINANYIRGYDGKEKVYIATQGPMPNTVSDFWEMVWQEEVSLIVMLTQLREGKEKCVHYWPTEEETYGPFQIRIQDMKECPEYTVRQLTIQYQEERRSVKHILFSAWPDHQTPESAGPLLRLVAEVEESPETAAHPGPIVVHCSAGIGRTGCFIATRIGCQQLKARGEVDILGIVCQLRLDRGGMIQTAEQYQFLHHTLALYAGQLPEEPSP

[19] = biological target: T6, Tyrosine-protein phosphatase non-receptor type 22; experiment: LYP (PTPN22) phosphatase inhibitor potency, SAR follow-up, biochemical, pCAP fluorogenic substrate, fluorescence, set 3 (AID 449727); assay type: functional
[20] = biological target: T6, Tyrosine-protein phosphatase non-receptor type 22; experiment: SAR LYP1 Fluorescent Assay using OMFP substrate for In Vitro dose response studies - Set 3. [Related pubchem assays (depositor defined):AID1779, AID1784, AID2140, AID2686]; assay type: functional
[21] = biological target: T8, Rac GTPase-activating protein 1 (Homo sapiens, UniProt Q9H0H5); experiment: MgcRacGAP GTPase-activating activity inhibitors, confirmation, biochemical, ADP Hunter fluorescence, primary and confirmatory (AID 624330); assay type: functional
T8 sequence (Q9H0H5 whole entry): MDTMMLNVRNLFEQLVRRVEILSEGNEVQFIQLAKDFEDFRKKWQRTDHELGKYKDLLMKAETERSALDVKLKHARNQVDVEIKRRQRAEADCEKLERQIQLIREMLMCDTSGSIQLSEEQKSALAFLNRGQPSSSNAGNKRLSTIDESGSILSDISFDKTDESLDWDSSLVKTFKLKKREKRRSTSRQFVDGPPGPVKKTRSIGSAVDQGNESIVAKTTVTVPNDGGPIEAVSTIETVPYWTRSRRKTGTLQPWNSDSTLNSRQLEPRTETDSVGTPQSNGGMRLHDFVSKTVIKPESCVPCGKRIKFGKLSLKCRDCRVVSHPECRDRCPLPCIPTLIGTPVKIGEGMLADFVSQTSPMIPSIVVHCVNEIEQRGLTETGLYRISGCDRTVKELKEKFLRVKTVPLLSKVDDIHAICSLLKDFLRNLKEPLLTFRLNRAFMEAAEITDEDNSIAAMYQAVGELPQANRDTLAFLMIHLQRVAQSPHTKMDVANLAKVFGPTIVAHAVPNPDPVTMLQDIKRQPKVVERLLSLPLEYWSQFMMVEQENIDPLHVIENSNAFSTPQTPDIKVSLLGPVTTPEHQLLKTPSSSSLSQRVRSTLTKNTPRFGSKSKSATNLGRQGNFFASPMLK

[22] = biological target: DNA dC->dU-editing enzyme APOBEC-3A (Homo sapiens, UniProt P31941); experiment: APOBEC3A DNA deaminase inhibitors, dose response, biochemical (AID 504722); assay type: functional
[23] = biological target: DNA dC->dU-editing enzyme APOBEC-3G (Homo sapiens, UniProt Q9HC16); experiment: Dose Response confirmation of small molecule APOBEC3G DNA Deaminase Inhibitors via a fluorescence-based single-stranded DNA deaminase assay. [Related pubchem assays (depositor defined):AID493012, AID493028]; assay type: functional

T1 sequence (Q00975 whole entry): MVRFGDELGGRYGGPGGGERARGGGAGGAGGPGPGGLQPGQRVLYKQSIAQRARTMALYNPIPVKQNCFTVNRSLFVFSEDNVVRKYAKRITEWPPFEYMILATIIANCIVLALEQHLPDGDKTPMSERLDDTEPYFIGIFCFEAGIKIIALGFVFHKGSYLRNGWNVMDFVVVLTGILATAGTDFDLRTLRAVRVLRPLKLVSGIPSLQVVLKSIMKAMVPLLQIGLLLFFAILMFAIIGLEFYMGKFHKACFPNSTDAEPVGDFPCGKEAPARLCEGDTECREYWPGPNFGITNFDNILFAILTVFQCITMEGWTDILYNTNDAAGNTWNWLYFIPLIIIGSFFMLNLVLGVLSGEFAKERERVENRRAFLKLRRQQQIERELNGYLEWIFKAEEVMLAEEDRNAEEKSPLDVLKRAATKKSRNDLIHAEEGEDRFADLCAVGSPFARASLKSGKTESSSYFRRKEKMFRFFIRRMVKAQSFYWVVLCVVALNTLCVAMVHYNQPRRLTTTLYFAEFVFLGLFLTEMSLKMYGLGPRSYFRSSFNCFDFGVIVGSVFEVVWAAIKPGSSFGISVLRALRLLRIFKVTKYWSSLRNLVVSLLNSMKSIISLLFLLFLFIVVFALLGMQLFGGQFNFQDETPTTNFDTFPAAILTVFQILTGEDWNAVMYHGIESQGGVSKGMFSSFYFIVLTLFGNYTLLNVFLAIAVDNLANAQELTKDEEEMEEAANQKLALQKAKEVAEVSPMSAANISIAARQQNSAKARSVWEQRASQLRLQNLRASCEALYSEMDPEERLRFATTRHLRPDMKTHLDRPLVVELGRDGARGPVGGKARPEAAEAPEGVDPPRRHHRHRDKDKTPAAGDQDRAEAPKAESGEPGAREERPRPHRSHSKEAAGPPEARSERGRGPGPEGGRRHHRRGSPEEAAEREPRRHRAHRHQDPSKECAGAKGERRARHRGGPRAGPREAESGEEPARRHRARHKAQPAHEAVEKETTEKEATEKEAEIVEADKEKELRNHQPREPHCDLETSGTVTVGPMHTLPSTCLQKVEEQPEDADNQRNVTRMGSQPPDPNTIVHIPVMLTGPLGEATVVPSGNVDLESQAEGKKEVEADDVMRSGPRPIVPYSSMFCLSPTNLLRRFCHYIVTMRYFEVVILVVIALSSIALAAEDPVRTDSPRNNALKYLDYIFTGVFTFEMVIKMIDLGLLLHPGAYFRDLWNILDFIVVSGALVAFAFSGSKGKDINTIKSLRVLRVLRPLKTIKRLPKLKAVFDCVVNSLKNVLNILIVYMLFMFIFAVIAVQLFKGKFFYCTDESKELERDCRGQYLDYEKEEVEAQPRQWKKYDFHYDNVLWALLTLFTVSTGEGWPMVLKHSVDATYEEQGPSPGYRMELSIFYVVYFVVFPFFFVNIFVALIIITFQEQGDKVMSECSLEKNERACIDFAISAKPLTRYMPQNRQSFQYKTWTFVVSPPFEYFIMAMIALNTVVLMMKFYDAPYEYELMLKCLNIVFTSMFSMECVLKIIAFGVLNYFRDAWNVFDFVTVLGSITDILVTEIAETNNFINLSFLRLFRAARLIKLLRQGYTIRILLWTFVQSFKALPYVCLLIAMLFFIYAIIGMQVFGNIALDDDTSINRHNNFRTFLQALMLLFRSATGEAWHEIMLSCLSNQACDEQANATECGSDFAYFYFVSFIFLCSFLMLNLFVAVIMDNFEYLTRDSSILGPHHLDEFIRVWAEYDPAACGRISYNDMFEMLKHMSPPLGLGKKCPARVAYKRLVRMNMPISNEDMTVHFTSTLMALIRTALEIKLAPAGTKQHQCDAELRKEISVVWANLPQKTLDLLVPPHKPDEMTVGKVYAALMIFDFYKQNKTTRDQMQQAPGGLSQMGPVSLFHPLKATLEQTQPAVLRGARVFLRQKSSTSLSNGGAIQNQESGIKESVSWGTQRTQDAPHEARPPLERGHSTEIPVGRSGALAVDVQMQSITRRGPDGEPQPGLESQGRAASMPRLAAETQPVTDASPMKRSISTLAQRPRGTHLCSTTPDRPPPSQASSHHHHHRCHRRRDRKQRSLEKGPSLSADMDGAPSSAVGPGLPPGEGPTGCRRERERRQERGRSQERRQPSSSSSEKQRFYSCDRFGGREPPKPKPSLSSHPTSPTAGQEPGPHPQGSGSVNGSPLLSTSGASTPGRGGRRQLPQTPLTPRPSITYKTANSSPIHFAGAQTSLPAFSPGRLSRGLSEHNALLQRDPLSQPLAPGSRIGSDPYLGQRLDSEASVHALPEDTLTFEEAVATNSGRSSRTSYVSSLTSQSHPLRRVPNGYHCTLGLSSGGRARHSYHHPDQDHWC
T1 sequence (Q02410 whole entry): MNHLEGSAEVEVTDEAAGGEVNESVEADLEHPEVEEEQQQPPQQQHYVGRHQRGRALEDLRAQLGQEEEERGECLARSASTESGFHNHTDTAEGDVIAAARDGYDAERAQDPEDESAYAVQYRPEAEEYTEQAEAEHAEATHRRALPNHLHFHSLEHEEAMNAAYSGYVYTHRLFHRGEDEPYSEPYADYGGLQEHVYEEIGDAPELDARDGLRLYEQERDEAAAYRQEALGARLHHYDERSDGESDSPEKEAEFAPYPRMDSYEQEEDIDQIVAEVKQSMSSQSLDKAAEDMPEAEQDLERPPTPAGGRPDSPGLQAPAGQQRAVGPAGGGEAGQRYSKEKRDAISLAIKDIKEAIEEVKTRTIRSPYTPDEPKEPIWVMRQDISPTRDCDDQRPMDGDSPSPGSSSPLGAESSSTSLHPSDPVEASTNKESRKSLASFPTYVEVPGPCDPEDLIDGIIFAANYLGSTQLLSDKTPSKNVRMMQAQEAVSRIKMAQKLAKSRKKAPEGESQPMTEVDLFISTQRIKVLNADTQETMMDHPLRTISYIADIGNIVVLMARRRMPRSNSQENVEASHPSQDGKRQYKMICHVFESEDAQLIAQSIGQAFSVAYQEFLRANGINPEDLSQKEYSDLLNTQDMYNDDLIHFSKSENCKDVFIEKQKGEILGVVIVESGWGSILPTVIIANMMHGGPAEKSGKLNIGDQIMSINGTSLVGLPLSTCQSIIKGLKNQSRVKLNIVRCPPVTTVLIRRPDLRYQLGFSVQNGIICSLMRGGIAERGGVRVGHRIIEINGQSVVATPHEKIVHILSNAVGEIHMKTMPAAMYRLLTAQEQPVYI

COc1cc(NC(=O)c2cccc(F)c2)ccc1NC(=O)c1cc2ccccc2o1
IC50 [1]: > 50 µM (inactive)
IC50 [2]: 6.19 µM (active)
CC50 [3]: > 50 µM (active)

COC(=O)Cc1c(C)c2ccc(OCc3nn[nH]n3)c(C)c2oc1=O
AC50 (CAAX prenyl protease 2 [4]): 24.6 µM (active)
AC50 (CAAX prenyl protease 1): 12.6 µM (active)
AC50 (Trypsin): 21.3 µM (active)
AC50 (CAAX prenyl protease 2 [5]): 29.6 µM (active)

COc1ccccc1OCCOc1ccc(/C=C2/C(=N)N3OC(C)=CC3=NC2=O)cc1OC
IC50 [1]: > 50 µM (inactive)
AC50 (Cytochrome P450 2D6): 6.31 µM (inconclusive)
IC50 [2]: 0.212 µM (active)
AC50 (Cytochrome P450 2C19): 2 µM (inconclusive)

CC(OC(=O)c1cc2c(ccc3ccccc32)oc1=O)c1nc2ccccc2s1 (stereo not drawn)
EC50 (Beta-galactosidase): > 31.5 µM (inactive)
IC50 [6]: > 32 µM (inactive)
EC50 [7]: > 32 µM (inactive)
IC50 (H9c2): > 79 µM (inactive)
IC50 [8]: 10.5 µM (active)
EC50 (Mu-type opioid receptor): > 32 µM (inactive)
IC50 [9]: > 32 µM

O=C(Cn1c2ccccc2c(=O)c2ccccc21)Nc1ccccc1F
AC50 (CAAX prenyl protease 1): 6.04 µM (active)
AC50 (CAAX prenyl protease 2 [5]): 0.345 µM (active)

Cc1c(C(=O)Nc2ccc(F)cc2)cn2c(nc3ccccc32)c1C#N
IC50 (SUMO-activating enzyme): 41.7 µM (active)

CCOC(=O)Cn1c2ccccc2c2nc3ccccc3nc21
EC50 [10]: 107 µM (active)
IC50 (SUMO-activating enzyme): 29.6 µM (active)

O=C(Nc1ccc(N2CCN(C(=O)c3ccco3)CC2)c(Cl)c1)c1cccs1
CC50 [11]: > 20 µM (active)
CC50 [12]: > 40 µM (active)

O=C(NNC1=Nc2ccccc2SC1)c1ccc(Cl)cc1
EC50 (Beta-galactosidase): > 31.5 µM (inactive)
IC50 [6]: > 32 µM (inactive)
EC50 [13]: 18.4 µM (active)
EC50 [7]: > 32 µM (inactive)
IC50 [8]: 10.5 µM (active)
EC50 [14]: 11 µM (active)
EC50 [15]: 8.56 µM (active)
EC50 (Mu-type opioid receptor): > 32 µM (inactive)
IC50 [9]: > 32 µM

CN1CCN(c2ncc3nc(-c4ccc(Cl)cc4)c(=O)n(C)c3n2)CC1
AC50 (Cytochrome P450 3A4): inconclusive

O=C(N/N=C/c1ccc(O)cc1)c1ccc(-c2csc(Nc3ccc(Cl)cc3)n2)cc1
IC50 [16]: > 100 µM (inactive)
IC50 [17]: > 100 µM (inactive)
IC50 [18]: 24.1 µM (active)
IC50 [19]: > 100 µM (inactive)
IC50 [20]: > 100 µM (inactive)

Sc1nnc(-c2cccnc2)n1/N=C/c1cccs1
IC50 [21]: 58 µM (active)
IC50 [22]: > 100 µM (inactive)
IC50 [23]: 2.75 µM (active)
